Measurements published in ChEMBL document CHEMBL3301361, “Experimental in vitro DMPK and physicochemical data on a set of publicly disclosed compounds”.
Values after ≈ are worked out from the molar mass of the structure shown.

Tests used:
in vitro [1] = settings: hepatocytes
in vitro [2] = settings: human, plasma
in vitro [3] = settings: human
physchem [4] = settings: octan-1-ol/water
physchem [5] = settings: pH 7.4 buffer

Row | Compound | hepatocyte CLint (in vitro [1]) | fraction unbound at 5 h (in vitro [2]; PPB) | microsomal CLint (in vitro [3]; liver microsomes) | logD (physchem [4]; pH 7.4, LogD7.4) | microsomal CLint (in vitro [3]; microsomes) | fraction unbound at 5 h (in vitro [2]) | logD (physchem [4]; pH 7.4) | solubility thermodynamic (physchem [5])
1 | CCOC(=O)c1cnc2c(N)cccc2c1O | > 150 µL/min/1e6 cells | 0.201 | 20.4 µL/min/mg | 0.9 |  |  |  | 
2 | CN(C)c1nc(NC[C@H]2CC[C@H](CNS(=O)(=O)c3ccc(Br)cc3OC(F)(F)F)CC2)nc2ccccc12 | 50.1 µL/min/1e6 cells | 0.0005 |  |  | 117 µL/min/mg |  |  | 
3 | Cc1[nH]c2ccc(-c3nnc(SCC(=O)N4CCCc5ccccc54)o3)cc2c1C | > 150 µL/min/1e6 cells |  | > 150 µL/min/mg |  |  | 0.0052 |  | 
4 | O=C(Nc1ccncc1)c1cccc2ccccc12 | 25.1 µL/min/1e6 cells |  | 60.3 µL/min/mg |  |  | 0.069 | 3.1 | 
5 | CCN(CC)CCNc1ncnc2c1sc1nc(N3CCOCC3)c3c(c12)CCCC3 | 26.3 µL/min/1e6 cells | 0.0784 | 9.55 µL/min/mg | 3.3 |  |  |  | 
6 | Cc1cc(CCCOc2c(Cl)cc(C3=NCCO3)cc2Cl)on1 | > 150 µL/min/1e6 cells | 0.0034 |  | 3.72 | 66.1 µL/min/mg |  |  | 
7 | O=C(C1CCN(c2nnc(-n3cccc3)s2)CC1)N1CCN(Cc2ccc3c(c2)OCO3)CC1 | 50.1 µL/min/1e6 cells | 0.0447 | > 150 µL/min/mg | 2.5 |  |  |  | 
8 | Cc1cc(C)cc(-c2nnc(SCC(=O)N3CCN(C(=O)c4ccco4)CC3)o2)c1 | 89.1 µL/min/1e6 cells | 0.0321 |  | 3 | 67.6 µL/min/mg |  |  | 
9 | Cc1cc(C)nc(SCC(N)=O)n1 | < 3 µL/min/1e6 cells | 0.788 | < 3 µL/min/mg | 0.23 |  |  |  | 
10 | CC(=O)c1cc2ccc(O)cc2oc1=O | > 150 µL/min/1e6 cells | 0.0149 |  | 0.87 | 28.2 µL/min/mg |  |  | 
11 | COc1cnc(-c2ccccn2)nc1N(C)c1ccccc1 | > 150 µL/min/1e6 cells | 0.04 | 104 µL/min/mg | 2.79 |  |  |  | 
12 | COc1ccccc1C(=O)Nc1ccc(Cc2ccncc2)cc1 | 103 µL/min/1e6 cells | 0.0024 |  |  | 7 µL/min/mg |  |  | 
13 | O=C(Nc1ccccc1Cl)c1cc[nH]n1 | > 150 µL/min/1e6 cells | 0.0661 |  | 2.58 | 138 µL/min/mg |  |  | 
14 | Nc1nc2ccc(-c3ccncc3)cc2s1 | 29.5 µL/min/1e6 cells | 0.119 | 20.4 µL/min/mg |  |  |  |  | 
15 | Cc1ccc(S(=O)(=O)N2N=Cc3ccccc3B2O)cc1 | 6.17 µL/min/1e6 cells | 0.0836 | 14.1 µL/min/mg | 0.05 |  |  |  | 
16 | O=C1Nc2ccccc2B(O)N1c1ccccc1 | 7.94 µL/min/1e6 cells |  |  |  | 5.13 µL/min/mg | 0.179 | 1.4 | 
17 | CCCS(=O)(=O)N1N=Cc2cc(Cl)ccc2B1O | < 3 µL/min/1e6 cells | 0.17 | 9.77 µL/min/mg | -0.4 |  |  |  | 
18 | CSCCC(NC(=O)c1cnccn1)c1nc2ccccc2[nH]1 (stereo not drawn) | 74 µL/min/1e6 cells | 0.398 | 31 µL/min/mg |  |  |  |  | 
19 | COCCNc1nc(NCc2ccccc2F)c2sccc2n1 | 148 µL/min/1e6 cells |  | > 150 µL/min/mg |  |  | 0.028 |  | 
20 | O=c1[nH]c2c(O)ccc([C@@H](O)CNCCc3cccc(CNCCc4ccccc4Cl)c3)c2s1 | 42 µL/min/1e6 cells |  |  | 1.63 | 19 µL/min/mg |  |  | 118 µM (≈ 58.5 µg/mL)
21 | CN[C@@H](C)C(=O)N[C@H](C(=O)N1CC[C@H]2CCN(CCc3ccccc3)C[C@H]21)C1CCCCC1 | 10.5 µL/min/1e6 cells | 0.0568 | 21.4 µL/min/mg | 2.47 |  |  |  | 
22 | COc1ccc(-c2nc3c(NCCCN(C)C(=O)C4CCC4)c(Br)cnc3[nH]2)cc1 | 138 µL/min/1e6 cells | 0.0022 | > 150 µL/min/mg |  |  |  |  | 
23 | O=C(O)CCc1ccc(OCc2cc(Cl)ccc2-c2ccccc2)cc1 | 13.8 µL/min/1e6 cells | 0.002 |  | 3.22 | < 3 µL/min/mg |  |  | 
24 | Nc1ncnc2c1c(COc1cccc(Cl)c1)nn2C1CCOCC1 | > 150 µL/min/1e6 cells | 0.0477 |  | 3.17 | 46.8 µL/min/mg |  |  | 
25 | O=C(Nc1nc2ccccc2n1CCCO)c1cccc([N+](=O)[O-])c1 | 85.1 µL/min/1e6 cells | 0.0801 |  | 3 | 112 µL/min/mg |  |  | 
26 | COc1ccc(N(C(=O)Oc2c(C)cccc2C)c2ccnc(Nc3ccc(N4CCN(C)CC4)cc3)n2)c(OC)c1 | 35.5 µL/min/1e6 cells |  |  |  | 27.5 µL/min/mg | 0.0017 |  | 
27 | CCc1nc2ccc(C(=O)NCc3ccc4c(c3)OCO4)cn2c1N(C)Cc1cccs1 | > 150 µL/min/1e6 cells | 0.0035 | > 150 µL/min/mg |  |  |  |  | 

Row | Compound | hepatocyte CLint (in vitro [1]) | fraction unbound at 5 h (in vitro [2]; PPB) | microsomal CLint (in vitro [3]; liver microsomes) | logD (physchem [4]; pH 7.4, LogD7.4) | microsomal CLint (in vitro [3]; microsomes) | fraction unbound at 5 h (in vitro [2]) | logD (physchem [4]; pH 7.4) | solubility thermodynamic (physchem [5])
28 | CCNC(=O)C[C@H]1N=C(c2ccc(Cl)cc2)c2cc(OC)ccc2-n2c(C)nnc21 | 6.31 µL/min/1e6 cells |  |  |  | 11.5 µL/min/mg | 0.069 |  | 
29 | O=C(O)Cc1ccc(N2CCC(CN3CCC(Oc4ccc(Cl)c(Cl)c4)CC3)CC2)cc1 | 9 µL/min/1e6 cells | 0.02 |  |  | < 3 µL/min/mg |  |  | 
30 | O=C(Nc1cc(-c2ccncc2)c[nH]c1=O)[C@H](Cc1ccccc1)NC1(c2ccccn2)CC1 | > 150 µL/min/1e6 cells | 0.0287 | 19.1 µL/min/mg | 3.44 |  |  |  | 
31 | CC(C)N(CCCNC(=O)Nc1ccc(C(C)(C)C)cc1)C[C@H]1O[C@@H](n2ccc3c(N)ncnc32)[C@H](O)[C@@H]1O | 33.9 µL/min/1e6 cells | 0.201 | > 150 µL/min/mg | 2.4 |  |  |  | 
32 | Nc1ncnc2c1ncn2[C@@H]1O[C@H](CSCCCNC(=O)NCc2ccccc2)[C@@H](O)[C@H]1O | 14.4 µL/min/1e6 cells | 0.154 |  | 0.9 | 21.4 µL/min/mg |  |  | 
33 | CC(C)c1ccc(NC(=O)NCCCSC[C@H]2O[C@@H](n3cnc4c(N)ncnc43)[C@H](O)[C@@H]2O)cc1 | 110 µL/min/1e6 cells | 0.0784 | 126 µL/min/mg | 2.5 |  |  |  | 
34 | Nc1ncnc2c1ncn2[C@@H]1O[C@H](CSCCCNC(=O)Nc2ccc(Cl)cc2)[C@@H](O)[C@H]1O | 93.3 µL/min/1e6 cells | 0.0836 | 21.4 µL/min/mg | 2.5 |  |  |  | 
35 | CC(C)N(CCCNC(=O)Nc1ccc(C(C)(C)C)cc1)C[C@H]1O[C@@H](n2cnc3c(N)ncnc32)[C@H](O)[C@@H]1O | 26.9 µL/min/1e6 cells | 0.285 | 112 µL/min/mg | 2.2 |  |  |  | 
36 | C=CC(=O)Nc1cccc(CN2C(=O)N(c3c(Cl)c(OC)cc(OC)c3Cl)Cc3cnc(NCCCCN(CC)CC)nc32)c1 | 39.8 µL/min/1e6 cells | 0.02 | 87.1 µL/min/mg | 2.04 |  |  |  | 
37 | COc1cc(O)c(C(CC(=O)N2CC(C)CC(C)C2)c2ccc3c(c2)OCO3)c(OC)c1 (stereo not drawn) | > 150 µL/min/1e6 cells | 0.0024 |  | 4.3 | > 150 µL/min/mg |  |  | 
38 | O=C(CSc1nc2c(c(=O)n1-c1ccccc1)SCC2)Nc1ccc(-c2ccccc2)cn1 | > 150 µL/min/1e6 cells | 0.0017 |  |  | > 150 µL/min/mg |  |  | 
39 | O=C(CSc1nc2c(c(=O)n1-c1ccccc1)SCC2)Nc1ncc(-c2ccccc2)s1 | 129 µL/min/1e6 cells | 0.0023 | > 150 µL/min/mg |  |  |  |  | 
40 | CC(=O)Nc1nc(CCc2ccc(NC(=N)N)cc2)cs1 | 12.9 µL/min/1e6 cells | 0.465 | 3.98 µL/min/mg | -0.82 |  |  |  | 
41 | C[C@@H](NC(=O)C1CCNCC1)c1ccc(Nc2ncc3cc(-c4ccncc4)ccc3n2)cc1 | < 3 µL/min/1e6 cells | 0.0477 | 4.17 µL/min/mg | 0.4 |  |  |  | 
42 | CCc1[nH]c2nc(Sc3cnc4ccc[n+]([O-])c4c3)nc(N3C[C@@H]4[C@@H](N)[C@@H]4C3)c2c1Cl | 58.9 µL/min/1e6 cells | 0.0661 |  | 2.3 | 33.9 µL/min/mg |  |  | 
43 | CNc1nc(C)c(-c2nc(Nc3cccc(N4CCNCC4)c3)ncc2C#N)s1 | 12.3 µL/min/1e6 cells | 0.139 |  | 1.9 | 17.8 µL/min/mg |  |  | 
44 | CNc1nc(C)c(-c2nc(Nc3cccc(N4CCCCC4)c3)ncc2C#N)s1 | > 150 µL/min/1e6 cells | 0.0019 | 95.5 µL/min/mg |  |  |  |  | 
45 | CC(C)C(=O)Nc1nc(-c2ccccn2)cc2ccccc12 | 61.7 µL/min/1e6 cells | 0.0245 | 105 µL/min/mg | 2.7 |  |  |  | 
46 | C[C@@H](C(N)=O)c1ccc(OS(=O)(=O)C(F)(F)F)cc1 | 3 µL/min/1e6 cells | 0.134 | < 3 µL/min/mg |  |  |  |  | 
47 | Clc1cccc(-c2cnc3ccc(NC4CCOCC4)nn23)c1 | 14.8 µL/min/1e6 cells | 0.009 | 9.12 µL/min/mg | 4.3 |  |  |  | 
48 | CCOc1nc2ccc(OCCC3CCN(c4ccc(C)nn4)CC3)cc2o1 | 4 µL/min/1e6 cells | 0.0028 | 6 µL/min/mg |  |  |  |  | 
49 | CN[C@@H](C)C(=O)N[C@H](C(=O)N1CC[C@H]2CC[C@H](NC(=O)c3cccc4ccccc34)[C@H]21)C(C)(C)C | 12 µL/min/1e6 cells | 0.016 | 85.1 µL/min/mg | 1.94 |  |  |  | 
50 | O=C(O)c1cncc(-c2ccc(Cl)c(C(=O)NCC34CC5CC(CC(C5)C3)C4)c2)c1 | 7 µL/min/1e6 cells | 0.0099 |  | 0.85 | 66 µL/min/mg |  |  | 
51 | CC1N=C(N)N=C(N)N1c1ccc(Cl)cc1 (stereo not drawn) | < 3 µL/min/1e6 cells | 0.747 | 3.31 µL/min/mg | -0.8 |  |  |  | 
52 | CC1(C)S[C@@H]2[C@H](NC(=O)C(C(=O)O)c3ccccc3)C(=O)N2[C@H]1C(=O)O (stereo partly drawn) [CARBENICILLIN] | 3.39 µL/min/1e6 cells | 0.546 | 6.92 µL/min/mg |  |  |  |  | 
53 | COc1cc(C(=O)OCCCCNC(=N)N)cc(OC)c1O [LEONURINE] | 138 µL/min/1e6 cells | 0.619 | < 3 µL/min/mg |  |  |  |  | 
54 | CS(=O)(=O)c1ccc([C@@H](CC2CCCC2)C(=O)Nc2nccs2)cc1 [Ro-281675] | 20.9 µL/min/1e6 cells |  |  | 3.86 | 29.5 µL/min/mg |  |  | 5.5 µM (≈ 2.08 µg/mL)
